This is an account of results in publication PMC8555409 (Journal of medicinal chemistry, 2021).

pKd: −log10 of the molar value. Non-standard residues stand in square brackets, D forms with d. Residues, ends and D or L forms follow the SMILES beside them. *: point of attachment. Cyclohexanoyl(1S,3S-3-NH2) = N[C@H]1CCC[C@H](C(=O)*)C1; Trp(5-OH) = N[C@@H](Cc1c[nH]c2ccc(O)cc12)C(=O)O; NH(4-morpholinophenyl) = c1cc(N2CCOCC2)ccc1N*; Bip = N[C@@H](Cc1ccc(-c2ccccc2)cc1)C(=O)O; hArg = N=C(N)NCCCC[C@H](N)C(=O)O Where only a bound is given, the exact number is not on record here.

One assay concerns the target EphA4-LBD (Homo sapiens, UniProt P54764, C204A). Put plainly: 2D [13C,1H] NMR chemical shift perturbations with 13Cε-Met labeled EphA4-LBD.
Assay [1] has as its system motor neurons co-cultured with iAstrocytes derived from sALS patients. Type of assay: cell-based, mouse. The settings on record: 100 μM, 3 days co-culture.
For assay [2], the system named is SOD1(G93A) transgenic mice. To be noted: daily in vivo administration; cited from earlier work.
For another assay, the system named is EphA4. The settings on record: cited from earlier work.

Chain of EphA4-LBD (P54764 29-209 C204A): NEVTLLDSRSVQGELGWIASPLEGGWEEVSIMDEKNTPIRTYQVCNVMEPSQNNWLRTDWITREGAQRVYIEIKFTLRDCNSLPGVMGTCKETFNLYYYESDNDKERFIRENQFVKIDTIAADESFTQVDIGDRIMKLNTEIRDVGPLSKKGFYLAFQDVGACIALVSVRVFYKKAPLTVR

As a reminder, the pKd is the negative decadic logarithm of the Kd, by convention in mol/L. Consider `N=C(N)NCCCC[C@H](NC(=O)[C@H](Cc1ccc(-c2ccccc2)cc1)NC(=O)[C@H](Cc1c[nH]c2ccc(O)cc12)NC(=O)[C@H]1CCC[C@H](N)C1)C(=O)NCC(=O)Nc1ccc(N2CCOCC2)cc1` [compound 33] ({Cyclohexanoyl(1S,3S-3-NH2)}-[Trp(5-OH)][Bip][hArg]G-{NH(4-morpholinophenyl)}), for which the negative-log Kd (pKd) on EphA4-LBD is over 7.22.
Turning to `COc1ccc2[nH]cc(CCNC(=O)[C@H](Cc3ccncc3)NC(=O)[C@H](Cc3ccc(Cl)cc3)NC(=O)[C@H](Cc3c[nH]c4ccc(O)cc34)NC(=O)CCCN)c2c1` [123C4], in assay [1], the “protection of motor neurons from sALS iAstrocytes (motor neuron survival)” value is recorded as “able to protect mouse motor neurons”. In assay [2], the survival entry is given as “significantly prolonged survival”. In addition, the “agonistic activity for EphA4 in primary cortical neurons” value with EphA4 was “induced receptor phosphorylation and growth cone collapse”.
